Key:
Homo sapiens [1] = species: Homo sapiens; assay: Inhibition of recombinant human MARK1 V16E/T20S mutant (2 to end residues) assessed as residual activity at 1 uM using KKKVSRSGLYRSPSMPENLNRPR as substrate incubated for 40 mins in presence of [gamma-33ATP by scintillation counting based radiometry assay relative to control
[2] = target: Serine/threonine-protein kinase 4 (Homo sapiens) (UniProt Q13043); assay: Inhibition of recombinant full-length human MST1 assessed as residual activity at 1 uM using KKSRGDYMTMQIG as substrate measured after 40 mins in presence of [gamma33P]ATP by scintillation counting method relative to control
[3] = target: Insulin-like growth factor 1 receptor (Homo sapiens) (UniProt P08069); assay: Inhibition of human IGF1R (959 to end residues) assessed as residual activity at 1 uM using KKKSPGEYVNIEFG as substrate after 40 mins by [gamma-33ATP] radiometric assay relative to control
[4] = target: Ribosomal protein S6 kinase alpha-6 (Homo sapiens) (UniProt Q9UK32); assay: Inhibition of recombinant full length human Rsk4 assessed as residual activity at 1 uM using LRRASLG as substrate measured after 40 mins in presence of [gamma33P]ATP by scintillation counting method relative to control
[5] = target: Tyrosine-protein kinase SYK (Homo sapiens) (UniProt P43405); assay: Inhibition of recombinant full-length human Syk at 1 uM assessed as residual activity at 1 uM using poly(Glu, Tyr) 4:1 as substrate measured after 120 mins in presence of [gamma33P]ATP by scintillation counting method relative to control
[6] = target: Serine/threonine-protein kinase pim-2 (Homo sapiens) (UniProt Q9P1W9); assay: Inhibition of recombinant human Pim2 (2 to end residues) assessed as residual activity at 1 uM using RSRHSSYPAGT as substrate measured after 40 mins in presence of [gamma33P]ATP by scintillation counting method relative to control
[7] = target: Fibroblast growth factor receptor 2 (Homo sapiens) (UniProt P21802); assay: Inhibition of recombinant human FGFR2 (456 to 770 residues) assessed as residual activity at 1 uM using poly(Glu, Tyr) 4:1 as substrate at 40 mins in presence of [gamma-33ATP] by scintillation counting based radiometry assay relative to control
[8] = target: Serine/threonine-protein kinase DCLK3 (Homo sapiens) (UniProt Q9C098); assay: Inhibition of recombinant human DCAMKL3 (345 to end residues) assessed as residual activity at 1 uM using KKLNRTLSFAEPG as substrate at 40 mins in presence of [gamma-33ATP] by scintillation counting based radiometry assay relative to control
[9] = system: RAC-beta serine/threonine-protein kinase (Homo sapiens), P31751 [S474D]; assay: Inhibition of recombinant human PKBbeta S474D mutant (120 to end residues) assessed as residual activity at 1 uM using GRPRTSSFAEGKK as substrate measured after 40 mins in presence of [gamma33P]ATP by scintillation counting method relative to control
RAC-beta serine/threonine-protein kinase (Homo sapiens), P31751 [S474D], sequence (P31751 whole entry S474D): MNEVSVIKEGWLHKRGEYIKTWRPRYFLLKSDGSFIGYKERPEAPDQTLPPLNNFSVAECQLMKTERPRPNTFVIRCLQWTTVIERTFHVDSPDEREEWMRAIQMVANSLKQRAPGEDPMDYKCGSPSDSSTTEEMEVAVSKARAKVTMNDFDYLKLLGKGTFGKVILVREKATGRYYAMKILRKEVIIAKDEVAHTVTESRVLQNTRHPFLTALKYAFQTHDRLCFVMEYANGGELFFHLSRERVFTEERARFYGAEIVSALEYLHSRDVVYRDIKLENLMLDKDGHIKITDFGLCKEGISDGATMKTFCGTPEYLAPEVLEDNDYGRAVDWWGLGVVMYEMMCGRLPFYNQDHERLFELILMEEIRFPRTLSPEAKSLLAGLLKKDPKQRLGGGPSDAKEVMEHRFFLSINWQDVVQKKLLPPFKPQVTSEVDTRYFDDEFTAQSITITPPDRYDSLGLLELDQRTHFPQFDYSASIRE

Homo sapiens [10] = species: Homo sapiens; assay: Inhibition of recombinant human MAPKAPK2 A399G mutant (46 to end residues) assessed as residual activity at 1 uM using KKLNRTLSVA as substrate incubated for 40 mins in presence of [gamma-33ATP by scintillation counting based radiometry assay relative to control
[11] = target: Serine/threonine-protein kinase NLK (Homo sapiens) (UniProt Q9UBE8); assay: Inhibition of recombinant human NLK (121 to end residues) assessed as residual activity at 1 uM using myelin basic protein as substrate measured after 40 mins in presence of [gamma33P]ATP by scintillation counting method relative to control
[12] = target: Vascular endothelial growth factor receptor 2 (Homo sapiens) (UniProt P35968); assay: Inhibition of human KDR (790 to end residues) assessed as residual activity at 1 uM using myelin basic protein as substrate after 40 mins by [gamma-33ATP] radiometric assay relative to control
Vascular endothelial growth factor receptor 2 (Homo sapiens), sequence (P35968 whole entry, the tested form may be a part): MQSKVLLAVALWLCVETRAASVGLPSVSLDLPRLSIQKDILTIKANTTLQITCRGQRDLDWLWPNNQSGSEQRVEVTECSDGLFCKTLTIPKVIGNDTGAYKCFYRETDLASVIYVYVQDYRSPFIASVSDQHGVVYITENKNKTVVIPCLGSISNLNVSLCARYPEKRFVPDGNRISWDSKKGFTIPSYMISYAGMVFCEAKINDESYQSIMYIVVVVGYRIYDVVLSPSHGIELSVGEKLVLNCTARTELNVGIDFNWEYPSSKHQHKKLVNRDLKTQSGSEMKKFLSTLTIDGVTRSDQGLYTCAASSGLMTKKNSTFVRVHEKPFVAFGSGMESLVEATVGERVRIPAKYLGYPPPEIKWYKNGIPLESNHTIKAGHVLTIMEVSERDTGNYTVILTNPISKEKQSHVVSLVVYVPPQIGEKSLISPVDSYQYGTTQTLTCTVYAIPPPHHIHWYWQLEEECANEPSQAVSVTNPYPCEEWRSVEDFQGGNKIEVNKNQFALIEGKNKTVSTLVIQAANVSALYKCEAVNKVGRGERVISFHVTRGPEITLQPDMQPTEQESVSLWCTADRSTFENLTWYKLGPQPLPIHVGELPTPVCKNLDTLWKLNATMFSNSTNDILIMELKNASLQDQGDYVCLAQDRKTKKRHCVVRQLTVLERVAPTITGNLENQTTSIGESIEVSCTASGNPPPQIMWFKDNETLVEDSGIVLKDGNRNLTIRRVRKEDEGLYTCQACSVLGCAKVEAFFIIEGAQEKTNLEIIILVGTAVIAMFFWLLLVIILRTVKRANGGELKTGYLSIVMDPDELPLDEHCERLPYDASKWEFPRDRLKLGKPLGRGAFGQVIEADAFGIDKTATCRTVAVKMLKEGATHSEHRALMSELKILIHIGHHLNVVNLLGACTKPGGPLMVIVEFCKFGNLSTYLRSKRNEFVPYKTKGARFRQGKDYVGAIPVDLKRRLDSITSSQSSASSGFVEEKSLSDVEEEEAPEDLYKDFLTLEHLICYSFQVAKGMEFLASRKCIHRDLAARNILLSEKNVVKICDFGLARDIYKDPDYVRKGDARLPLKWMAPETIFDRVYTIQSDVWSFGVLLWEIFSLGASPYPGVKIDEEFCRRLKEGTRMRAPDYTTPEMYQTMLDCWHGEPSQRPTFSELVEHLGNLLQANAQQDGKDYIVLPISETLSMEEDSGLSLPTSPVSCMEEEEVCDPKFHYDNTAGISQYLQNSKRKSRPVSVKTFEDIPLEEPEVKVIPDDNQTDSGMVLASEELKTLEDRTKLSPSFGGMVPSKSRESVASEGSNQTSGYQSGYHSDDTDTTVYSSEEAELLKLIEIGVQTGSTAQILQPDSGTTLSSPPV

[13] = target: Serine/threonine-protein kinase Nek9 (Homo sapiens) (UniProt Q8TD19); assay: Inhibition of recombinant human NEK9 (1 to 324 residues) assessed as residual activity at 1 uM using myelin basic protein as substrate measured after 40 mins in presence of [gamma33P]ATP by scintillation counting method relative to control
[14] = target: Serine/threonine-protein kinase PAK 1 (Homo sapiens) (UniProt Q13153); assay: Inhibition of recombinant human PAK1 (150 to end residues) assessed as residual activity at 1 uM using RRRLSFAEPG as substrate measured after 40 mins in presence of [gamma33P]ATP by scintillation counting method relative to control
Serine/threonine-protein kinase PAK 1 (Homo sapiens), sequence (Q13153 whole entry, the tested form may be a part): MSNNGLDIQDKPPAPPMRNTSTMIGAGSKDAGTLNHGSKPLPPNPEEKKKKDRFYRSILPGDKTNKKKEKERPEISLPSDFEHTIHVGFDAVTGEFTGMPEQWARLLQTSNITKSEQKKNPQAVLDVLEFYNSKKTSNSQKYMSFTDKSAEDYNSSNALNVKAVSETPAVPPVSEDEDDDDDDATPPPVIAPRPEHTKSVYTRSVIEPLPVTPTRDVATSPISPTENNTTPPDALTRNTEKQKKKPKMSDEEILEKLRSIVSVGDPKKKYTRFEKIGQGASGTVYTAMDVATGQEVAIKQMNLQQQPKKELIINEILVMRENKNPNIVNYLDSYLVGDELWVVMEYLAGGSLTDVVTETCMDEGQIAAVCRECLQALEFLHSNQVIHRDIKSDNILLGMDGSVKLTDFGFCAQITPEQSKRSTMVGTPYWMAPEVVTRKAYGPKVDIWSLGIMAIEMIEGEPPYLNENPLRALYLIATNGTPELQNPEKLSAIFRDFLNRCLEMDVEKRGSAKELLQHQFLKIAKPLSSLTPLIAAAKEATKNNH

[15] = target: Homeodomain-interacting protein kinase 1 (Homo sapiens) (UniProt Q86Z02); assay: Inhibition of human HIPK1 (158 to 555 residues) assessed as residual activity at 1 uM using myelin basic protein as substrate after 40 mins by [gamma-33ATP] radiometric assay relative to control
[16] = target: Epithelial discoidin domain-containing receptor 1 (Homo sapiens) (UniProt Q08345); assay: Inhibition of recombinant human DDR1 (492 to end residues) assessed as residual activity at 1 uM using KKKSPGEYVNIEFG as substrate at 40 mins in presence of [gamma-33ATP] by scintillation counting based radiometry assay relative to control
Epithelial discoidin domain-containing receptor 1 (Homo sapiens), sequence (Q08345 whole entry, the tested form may be a part): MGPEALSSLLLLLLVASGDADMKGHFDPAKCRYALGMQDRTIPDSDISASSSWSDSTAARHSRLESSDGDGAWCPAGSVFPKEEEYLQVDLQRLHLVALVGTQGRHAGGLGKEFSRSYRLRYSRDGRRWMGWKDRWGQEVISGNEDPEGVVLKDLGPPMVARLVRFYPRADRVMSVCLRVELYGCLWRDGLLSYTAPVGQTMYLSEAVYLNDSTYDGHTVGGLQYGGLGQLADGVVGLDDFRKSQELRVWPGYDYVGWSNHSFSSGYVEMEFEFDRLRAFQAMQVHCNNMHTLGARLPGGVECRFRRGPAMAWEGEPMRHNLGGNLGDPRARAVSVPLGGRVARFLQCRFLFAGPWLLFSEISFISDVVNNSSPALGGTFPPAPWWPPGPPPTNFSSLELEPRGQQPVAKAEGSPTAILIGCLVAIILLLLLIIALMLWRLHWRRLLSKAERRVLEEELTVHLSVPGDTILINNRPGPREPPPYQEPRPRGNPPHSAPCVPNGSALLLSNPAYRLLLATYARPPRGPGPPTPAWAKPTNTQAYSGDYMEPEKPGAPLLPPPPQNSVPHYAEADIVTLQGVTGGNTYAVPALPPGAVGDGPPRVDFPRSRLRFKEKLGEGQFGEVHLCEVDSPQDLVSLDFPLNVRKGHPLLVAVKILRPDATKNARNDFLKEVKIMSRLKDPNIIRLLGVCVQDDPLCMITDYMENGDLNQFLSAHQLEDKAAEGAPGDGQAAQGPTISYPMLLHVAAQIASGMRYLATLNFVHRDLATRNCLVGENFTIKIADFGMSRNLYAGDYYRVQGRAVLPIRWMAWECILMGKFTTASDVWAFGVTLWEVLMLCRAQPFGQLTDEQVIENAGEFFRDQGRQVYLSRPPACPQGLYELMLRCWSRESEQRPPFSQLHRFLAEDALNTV

[17] = target: Serine/threonine-protein kinase ULK1 (Homo sapiens) (UniProt O75385); assay: Inhibition of human ULK1 (1 to 314 residues) assessed as residual activity at 1 uM using casein as substrate measured after 40 mins in presence of [gamma33P]ATP by scintillation counting method relative to control
[18] = target: Fibroblast growth factor receptor 1 (Homo sapiens) (UniProt P11362); assay: Inhibition of recombinant human FGFR1 (456 to 765 residues) assessed as residual activity at 1 uM using KKKSPGEYVNIEF as substrate at 40 mins in presence of [gamma-33ATP] by scintillation counting based radiometry assay relative to control
Fibroblast growth factor receptor 1 (Homo sapiens), sequence (P11362 22-822 limits assumed): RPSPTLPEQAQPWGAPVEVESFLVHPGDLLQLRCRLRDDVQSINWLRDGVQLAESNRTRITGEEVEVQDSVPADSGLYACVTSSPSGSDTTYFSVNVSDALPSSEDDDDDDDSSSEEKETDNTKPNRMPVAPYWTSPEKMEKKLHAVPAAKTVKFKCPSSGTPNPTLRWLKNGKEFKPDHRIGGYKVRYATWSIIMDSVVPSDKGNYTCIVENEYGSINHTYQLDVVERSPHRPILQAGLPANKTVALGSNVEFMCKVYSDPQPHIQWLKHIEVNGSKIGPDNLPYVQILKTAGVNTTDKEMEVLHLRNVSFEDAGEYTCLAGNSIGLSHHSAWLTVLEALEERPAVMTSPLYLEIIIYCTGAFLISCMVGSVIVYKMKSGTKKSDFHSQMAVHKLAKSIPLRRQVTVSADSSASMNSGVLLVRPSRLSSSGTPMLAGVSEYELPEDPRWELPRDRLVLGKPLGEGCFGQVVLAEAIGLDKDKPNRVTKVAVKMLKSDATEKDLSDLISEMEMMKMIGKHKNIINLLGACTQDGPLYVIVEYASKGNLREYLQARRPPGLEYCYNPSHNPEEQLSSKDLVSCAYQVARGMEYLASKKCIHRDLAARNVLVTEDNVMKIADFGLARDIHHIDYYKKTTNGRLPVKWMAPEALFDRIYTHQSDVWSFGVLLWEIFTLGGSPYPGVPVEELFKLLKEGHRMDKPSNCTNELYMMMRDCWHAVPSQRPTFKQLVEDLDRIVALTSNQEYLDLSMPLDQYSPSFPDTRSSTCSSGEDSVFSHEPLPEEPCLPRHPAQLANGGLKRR

[19] = system: Serine/threonine-protein kinase TAO3 (Homo sapiens), Q9H2K8 [UNDEFINED MUTATION]; assay: Inhibition of human TAO3 (1 to 411 residues) assessed as residual activity at 1 uM using myelin basic protein as substrate measured after 40 mins in presence of [gamma33P]ATP by scintillation counting method relative to control
Serine/threonine-protein kinase TAO3 (Homo sapiens), Q9H2K8 [UNDEFINED MUTATION], sequence (Q9H2K8 whole entry, looked up, stated change not applied, the tested form may be a part): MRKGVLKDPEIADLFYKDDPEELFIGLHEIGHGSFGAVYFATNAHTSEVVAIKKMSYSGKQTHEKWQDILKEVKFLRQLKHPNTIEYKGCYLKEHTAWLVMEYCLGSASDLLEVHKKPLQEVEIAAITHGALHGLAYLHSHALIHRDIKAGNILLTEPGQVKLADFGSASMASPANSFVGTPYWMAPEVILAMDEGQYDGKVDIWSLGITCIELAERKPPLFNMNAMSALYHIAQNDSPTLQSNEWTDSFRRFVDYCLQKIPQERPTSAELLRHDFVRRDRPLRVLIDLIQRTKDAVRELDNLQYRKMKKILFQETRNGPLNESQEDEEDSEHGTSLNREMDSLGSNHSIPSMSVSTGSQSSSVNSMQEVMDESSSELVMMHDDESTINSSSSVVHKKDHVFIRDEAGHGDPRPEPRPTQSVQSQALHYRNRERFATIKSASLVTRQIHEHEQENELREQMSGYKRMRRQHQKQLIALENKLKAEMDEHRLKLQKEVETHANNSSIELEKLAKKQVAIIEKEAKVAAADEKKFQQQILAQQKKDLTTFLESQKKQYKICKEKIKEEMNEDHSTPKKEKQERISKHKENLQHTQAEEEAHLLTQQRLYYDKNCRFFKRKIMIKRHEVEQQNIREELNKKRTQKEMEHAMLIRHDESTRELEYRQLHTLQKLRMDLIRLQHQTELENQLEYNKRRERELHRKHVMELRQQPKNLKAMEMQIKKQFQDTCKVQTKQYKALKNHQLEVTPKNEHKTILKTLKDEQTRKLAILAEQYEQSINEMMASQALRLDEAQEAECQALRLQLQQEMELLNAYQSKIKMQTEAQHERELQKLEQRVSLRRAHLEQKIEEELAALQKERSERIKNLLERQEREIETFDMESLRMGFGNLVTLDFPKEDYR

[20] = target: Inhibitor of nuclear factor kappa-B kinase subunit beta (Homo sapiens) (UniProt O14920); assay: Inhibition of full length human IKKbeta assessed as residual activity at 1 uM using peptide as substrate after 40 mins by [gamma-33ATP] radiometric assay relative to control
[21] = target: Tau-tubulin kinase 1 (Homo sapiens) (UniProt Q5TCY1); assay: Inhibition of human TTBK1 (1 to 479 residues) assessed as residual activity at 1 uM using Casein as substrate measured after 40 mins in presence of [gamma33P]ATP by scintillation counting method relative to control
[22] = target: PI3K p110 beta/p85 alpha (Homo sapiens) (UniProt P27986+P42338); assay: Inhibition of recombinant full-length human PI3K p110beta/p85alpha at 1 uM assessed as residual activity at 1 uM using phosphatidylinositol-4, 5-bisphosphate as substrate measured after 40 mins by fluorescence assay; assay type: protein-complex assay

Compound | Activity (Homo sapiens [1]) [%] | Activity [2] [%] | Activity [3] [%] | Activity [4] [%] | Activity [5] [%] | Activity [6] [%] | Activity [7] [%] | Activity [8] [%] | Activity [9] [%] | Activity (Homo sapiens [10]) [%] | Activity [11] [%] | Activity [12] [%] | Activity [13] [%] | Activity [14] [%] | Activity [15] [%] | Activity [16] [%] | Activity [17] [%] | Activity [18] [%] | Activity [19] [%] | Activity [20] [%] | also measured
N=C1NC(=O)/C(=C\c2ccc(-c3cccc([N+](=O)[O-])c3)o2)S1 | 89 | 98 | 108 | 99 | 93 | 6 | 102 | 92 | 111 | 103 | 59 | 94 | 103 | 104 | 3 | 99 | 98 | 99 | 81 | 62 | Activity [21]: 104%; Activity [22]: 99%
C=CCOC(=O)c1cc(-c2ccc(/C=C3/NC(=S)NC3=O)o2)ccc1Cl | 91 | 103 | 88 | 92 | 82 | 10 | 98 | 103 | 102 | 106 | 64 | 98 | 101 | 100 | 5 | 106 | 98 | 113 | 87 | 129 | Activity [21]: 114%; Activity [22]: 97%

— ChEMBL document CHEMBL4334438, “Discovery of novel glycogen synthase kinase-3α inhibitors: Structure-based virtual screening, preliminary SAR and biological evaluation for treatment of acute myeloid leukemia” (Eur J Med Chem, 2019)
